{"source": "patent US20100104536A1", "about": "“P38 INHIBITORS” (priority 2007, published 2010)", "key": {"[1]": {"test_system": "IL-2", "experiment": "Cytokine suppression in splenocytes: IL-2", "format": "cell-based, Balb/C mice", "settings": "48 hrs", "method": "(§1) Naïve Balb/C mice were randomized in two groups. Mice from groups 1 and 2 were sacrificed and spleens were isolated. The Splenocytes were isolated and cultured in RPMI […] 1640 media with 10% FBS and 1% antibiotics in microtitre plate. Group 1 was incubated with PBS while group 2 was incubated with 10̂8 Mw cells. After 48 hrs the cell supernatant was separated and the levels of cytokines were checked using commercial kit from R & D systems (Cat # M2000, Cat # M4000B, Cat # M1240).\n(§2) Naïve Balb/C mice were sacrificed and spleens were isolated for all five groups. The splenocytes were isolated from each group and cultured in RPMI 1640 media with […] in microtitre plate. The cells were plated in micro titer plate. The wells were divided into five sets. Set one was the control, set two was stimulated with Mw, set three with 10 mM of Dexamethasone set four with 10 mcM (micro mole) of Dexamethasone and set five with 1 mcM of dexammethasone. After 48 hrs of culture the cells were harvested and the cytokine assays were performed using commercial kits from R&D systems. (Cat #M5000, Cat #M4000B, Cat #M2000, Cat #M1240)"}, "[2]": {"test_system": "IL-4", "experiment": "Cytokine suppression in splenocytes: IL-4", "format": "cell-based, Balb/C mice", "settings": "48 hrs", "method": "as §1, §2"}, "[3]": {"settings": "after administration of 200 mg of Dexamethasone intravenously; cited from earlier work"}, "[4]": {"test_system": "IL-5", "experiment": "Cytokine suppression in splenocytes: IL-5", "format": "cell-based, Balb/C mice", "settings": "48 hrs", "method": "as §1, §2"}, "[5]": {"test_system": "IL-12p40", "experiment": "Cytokine suppression in splenocytes: IL-12p40", "format": "cell-based, Balb/C mice", "settings": "48 hrs", "method": "as §1, §2"}}, "data": [{"smiles": "C[C@@H]1C[C@H]2[C@@H]3CCC4=CC(=O)C=C[C@]4(C)[C@@]3(F)[C@@H](O)C[C@]2(C)[C@@]1(O)C(=O)CO", "note": "[Dexamethasone]", "values": [{"measurement": "In vitro % inhibition of IL-2", "setting": "[1]; Dexamethasone 1 mcM", "result": 25.6, "unit": "%"}, {"measurement": "In vitro % inhibition of IL-2", "setting": "[1]; Dexamethasone 10 mcM", "result": 33.7, "unit": "%"}, {"measurement": "inhibition at 10000 µM", "setting": "[1]; Mus musculus, Splenocyte, Dexamethasone 10 mM, read-out: In vitro % inhibition of IL-2", "result": 70.6, "unit": "%"}, {"measurement": "In vitro % inhibition of IL-4", "setting": "[2]; Dexamethasone 1 mcM", "result": 61.9, "unit": "%"}, {"measurement": "In vitro % inhibition of IL-4", "setting": "[2]; Dexamethasone 10 mcM", "result": 84.5, "unit": "%"}, {"measurement": "inhibition at 10000 µM", "setting": "[2]; Mus musculus, Splenocyte, Dexamethasone 10 mM, read-out: In vitro % inhibition of IL-4", "result": 93.7, "unit": "%"}, {"measurement": "Cmax", "setting": "[3]", "result": 10000, "unit": "µM"}, {"measurement": "In vitro % inhibition of IL-5", "setting": "[4]; Dexamethasone 1 mcM", "result": 43.9, "unit": "%"}, {"measurement": "In vitro % inhibition of IL-5", "setting": "[4]; Dexamethasone 10 mcM", "result": 70.3, "unit": "%"}, {"measurement": "inhibition at 10000 µM", "setting": "[4]; Mus musculus, Splenocyte, Dexamethasone 10 mM, read-out: In vitro % inhibition of IL-5", "result": 85.8, "unit": "%"}, {"measurement": "In vitro % inhibition of IL-12p40", "setting": "[5]; Dexamethasone 1 mcM", "result": 33.7, "unit": "%"}, {"measurement": "In vitro % inhibition of IL-12p40", "setting": "[5]; Dexamethasone 10 mcM", "result": 47.1, "unit": "%"}, {"measurement": "inhibition at 10000 µM", "setting": "[5]; Mus musculus, Splenocyte, Dexamethasone 10 mM, read-out: In vitro % inhibition of IL-12p40", "result": 57.7, "unit": "%"}]}]}
